Literature values in article PMC10969742, “A Phase I Study of the Oral Dual-Acting Pan-PI3K/mTOR Inhibitor Bimiralisib in Patients with Advanced Solid Tumors” (Cancers, 2024).

Parameters: method as in PMID 28490463
Details: intermittent versus daily dosing; cited from earlier work

Nc1nc2cc(-c3ccc4ncc(C(=O)N5CCOCC5)n4c3)ccc2o1 [TAK-117]
Safety profile of intermittent dosing: acceptable safety profile
